Experiments:
KRAS G12D = KRAS G12D (Homo sapiens (Human), UniProt P01116, G12D); experiment: Inhibitory activity on KRAS G12D nucleotide (GDP-GTP) exchange reaction in vitro (SOS1-dependent, BODIPY FL GDP); type: biochemical; conditions: BODIPY FL GDP-bound KRAS G12D, compound 25° C. 1 hour, then SOS1 and GMPPNP 30 minutes
Description: Test Example 1: Evaluation of inhibitory activity of compounds on KRAS G12D nucleotide (GDP-GTP) exchange reaction in vitro
Recombinant KRAS G12D (conjugated N-terminus His6-tag, TEV protease cleavage site and KRAS G12D residues 1-169 (SEQ ID NO: 1), prepared by the method described as below) and cleaved recombinant SOS1 (residues 564-1049(SEQ ID NO: 2), prepared by the method as below) proteins were expressed in E. coli and purified by affinity chromatography.
To prepare the recombinant KRAS G12D, the codon-optimized DNA sequence for the recombinant KRAS G12D (conjugated N-terminus His6-tag, TEV protease cleavage site and KRAS G12D residues 1-169 (SEQ ID NO: 3))was synthesized by GeneArt Technology (Life Technologies, Carlsbad, CA, US). The construct was subcloned into the expression vector pET28a and transformed into Escherichia coli BL21 (DE3) strains (Novagen, Madison, WI, US).
The transformed strain was cultivated in 2 L Luria Broth medium with 25 μg/mL kanamycin at a temperature of 37° C. to a density of 0.6 (OD600), then induced for expression with […] IPTG and further cultivated for 4 h. The cell pellet was resuspended in ice-cold lysis buffer containing 50 mM Tris-HCl (pH 7.5), 200 mM NaCl, and 100 μM TCEP (tris(2-carboxyethyl)phosphine).
After sonication, the disrupted debris was removed by centrifugation. The supernatant was applied on to Ni-NTA affinity gels, and the recombinant human KRAS (G12D) eluted fraction was collected. The buffer of the collected fraction was exchanged to the buffer containing 50 mM Tris-HCl (pH 7.5), 200 mM NaCl, 10% Glycerol, and 5 mM DTT by PD-10 column (GE-Healthcare, Chicago, IL, US).
To prepare the cleaved recombinant SOS1, the codon optimized DNA sequences for the recombinant SOS1 (residues 564-1049 with a conjugated N-terminus His6-tag and TEV protease cleavage site (SEQ ID NO: 4)) was synthesized by GeneArt Technology (Life Technologies). The construct was subcloned into the expression vector pET28a and transformed into Escherichia coli BL21 (DE3) strains (Novagen, Madison, WI, USA).
The transformed strain was cultivated in 2 L Terrific Broth medium with 25 μg/mL kanamycin at a temperature of 37° C. to a density of 0.8 (OD600), then shifted to a temperature of 16° C., induced for expression with […] IPTG, and further cultivated for 16 h. The cell pellet was resuspended in ice-cold lysis buffer containing 50 mM Tris-HCl (pH 7.5), 200 mM NaCl, and 100 μM TCEP.
After sonication, the disrupted debris was removed by centrifugation. The supernatant was applied on to Ni-NTA affinity gels, and the recombinant human SOS1 eluted fraction was collected. Then, His6-tagged TEV protease was added to the collected fraction, dialyzed with the ice-cold lysis buffer for 16 h at a temperature of 4° C., and applied on to Ni-NTA affinity gels. The flow-through fraction containing the tag-cleavaged recombinant human SOS1 was collected. The buffer of the collected fraction was exchanged to the buffer containing 50 mM Tris-HCl (pH 7.5), 200 mM NaCl, 10% Glycerol, and 5 mM DTT by PD-10 column (GE-Healthcare).
To prepare BODIPY FL (fluorescent dye) GDP-bound KRAS G12D protein, 50 μM KRAS G12D protein was incubated with 0.5 mM BODIPY FL GDP in a loading buffer (20 mM Tris-HCl (pH 7.5), 50 mM NaCl, 1 mM DTT and 2.5 mM EDTA) for 1 hour on ice. After the incubation, MgCl2 was added to a final concentration of 10 mM, followed by incubation at room temperature for 30 minutes.
The mixture was allowed to pass through a NAP-5 column to remove free nucleotides and purified BODIPY FL GDP-bound KRAS G12D protein was used for compound evaluation.
For the measurement of the inhibitory activity of compounds on GDP-GTP exchange rate of recombinant KRAS G12D, BODIPY FL GDP-bound KRAS G12D protein was incubated with various concentrations of compound in a reaction buffer (20 mM Tris-HCl (pH 7.5), 100 mM NaCl, 1 mM MgCl2, 2 mM DTT, 0.1% Tween 20) at 25° C. for 1 hour. […]

[1] = tested on: KRAS-G12D mutant cell line (A-427); experiment: Growth inhibition activity on KRAS-G12D mutant cell line (A-427), CellTiter-Glo 3D; type: cell-based; conditions: Homo sapiens, 72 h, A-427 cells, 3-day culture with compound, read-out: A427 CTX IC50
Description: Test Example 2: A measurement test of growth inhibition activity on KRAS-G12D mutant cell line (A-427) (in vitro) A-427 cells (ATCC, Cat #: HTB-53), which are a KRAS-G12D mutant human lung cancer cell line, were suspended in a 10% fetal bovine serum-containing E-MEM medium (manufactured by Fujifilm Wako Pure Chemical Corporation). The cell suspension was seeded into each well of a 384-well U bottom microplate and cultured in an incubator containing 5% CO2 gas at 37° C. for 1 day.
The compound of the present invention was dissolved in DMSO, and the test compound was diluted with DMSO to give a concentration 500 times the final concentration. The solution of the test compound in DMSO was diluted with the medium used for suspending cells and added to each well of the cell-culture plate to give a DMSO final concentration of 0.2%, followed by culture in an incubator containing 5% CO2 gas at 37° C. for another 3 days. The cell count after a 3-day culture in the presence of the compound was measured using CellTiter-Glo 3D Reagent (manufactured by Promega Corporation).
All wells were added with CellTiter-Glo 3D Reagent and mixed for 10 minutes. 30 minutes after mixing, luminescence was measured by a plate reader. The growth inhibition rate was calculated from the following equation, and the concentration of the test compound at which 50% inhibition was achieved (IC50 (μM)) was determined.
Growth Inhibition Rate(%)=(C−T)/(C)×100
T: the emission intensity in a well into which a test compound was added.
C: the emission intensity in a well into which a test compound was not added.

Chain of KRAS G12D (P01116 other isoform, or with tags, fused parts or gaps G12D (already in the parent)): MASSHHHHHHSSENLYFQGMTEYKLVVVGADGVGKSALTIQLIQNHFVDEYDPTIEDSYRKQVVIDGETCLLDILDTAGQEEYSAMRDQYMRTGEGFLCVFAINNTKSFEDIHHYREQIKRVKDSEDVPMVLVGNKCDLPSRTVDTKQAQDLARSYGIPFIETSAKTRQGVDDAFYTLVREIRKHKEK

`O=C(c1cc(O)cc2cccc(I)c12)N1Cc2nc(OCC3(CN4CC[C@@H](F)C4)CC3)nc(N3CC4CCC(C3)N4)c2C1` [Example 12, (4-(3,8-diazabicyclo[3.2.1]octan-3-yl)-2-((1-(((R)-3-fluoropyrrolidin-1-yl)methyl)cyclopropyl)methoxy)-5,7-dihydro-6H-pyrrolo[3,4-d]pyrimidin-6-yl) (3-hydroxy-8-iodonaphthalen-1-yl)methanone] showed an IC50 (KRAS G12D) of 4.4 nM and an IC50 [1] of 8150 nM.
`O=C(c1cc(O)cc2cccc(I)c12)N1Cc2nc(OCC3(CN4CCOCC4)CC3)nc(N3CC4CCC(C3)N4)c2C1` [Example 13, (4-(3,8-diazabicyclo[3.2.1]octan-3-yl)-2-((1-(morpholinomethyl)cyclopropyl)methoxy)-5,7-dihydro-6H-pyrrolo[3,4-d]pyrimidin-6-yl) (3-hydroxy-8-iodonaphthalen-1-yl)methanone] was tested, and the IC50 (KRAS G12D) was 5.5 nM and the IC50 [1] was 8550 nM.
`CN(C)CC1(COc2nc(N3CC4CCC(C3)N4)c3cc(Cl)c(-c4cc(O)cc5ccccc45)c(F)c3n2)CC1` [Example 14, 4-(4-(3,8-diazabicyclo[3.2.1]octan-3-yl)-6-chloro-2-((1-((dimethylamino)methyl)cyclopropyl)methoxy)-8-fluoroquinazolin-7-yl)naphthalen-2-ol] showed an IC50 (KRAS G12D) of 8.9 nM and an IC50 [1] of 1270 nM.
`CN(C)CC1(COc2nc(N3CC4CCC(C3)N4)c3ccc(-c4cc(O)cc5ccccc45)c(F)c3n2)CC1` [Example 15, 4-(4-(3,8-diazabicyclo[3.2.1]octan-3-yl)-2-((1-((dimethylamino)methyl)cyclopropyl)methoxy)-8-fluoroquinazolin-7-yl) naphthalen-2-ol] showed an IC50 (KRAS G12D) of 4.7 nM and an IC50 [1] of 1360 nM.
In the case of `CN1CCC[C@H]1COc1nc(N2CC3CCC(C2)N3)c2ccc(-c3cc(O)cc4ccccc34)c(F)c2n1` [Example 16, 4-(4-(3,8-diazabicyclo[3.2.1]octan-3-yl)-8-fluoro-2-(((S)-1-methylpyrrolidin-2-yl)methoxy)quinazolin-7-yl) naphthalen-2-ol], the IC50 (KRAS G12D) is reported as 10.2 nM and the IC50 [1] is reported as 2390 nM.
Molecule `CCc1cc2c(N3CC4CCC(C3)N4)nc(OCC3(CN(C)C)CC3)nc2c(F)c1-c1cc(O)cc2ccccc12` [Example 19, 4-(4-(3,8-diazabicyclo[3.2.1]octan-3-yl)-2-((1-((dimethylamino)methyl)cyclopropyl)methoxy)-6-ethyl-8-fluoroquinazolin-7-yl)naphthalen-2-ol] has an IC50 (KRAS G12D) of 7.1 nM and an IC50 [1] of 1590 nM.
Molecule `CN(C)CC1(COc2nc3c(c(N4C[C@@H]5CC[C@H]4CN5)n2)CCN(c2cc(O)cc4cccc(Br)c24)C3)CC1` [Example 20, 4-(4-((1S,4S)-2,5-diazabicyclo[2.2.2]octan-2-yl)-2-((1-((dimethylamino)methyl)cyclopropyl)methoxy)-5,8-dihydropyrido[3,4-d]pyrimidin-7(6H)-yl)-5-bromonaphthalen-2-ol] has an IC50 (KRAS G12D) of 3 nM and an IC50 [1] of 1950 nM.
For `CN(C)CC1(COc2nc3c(c(N4CC5CCC(C4)N5)n2)CCN(c2cc(O)cc4cccc(Br)c24)C3)CC1(F)F` (stereo not shown) [Example 21, 4-(4-(3,8-diazabicyclo[3.2.1]octan-3-yl)-2-((1-((dimethylamino)methyl)-2,2-difluorocyclopropyl)methoxy)-5,8-dihydropyrido[3,4-d]pyrimidin-7(6H)-yl)-5-bromonaphthalen-2-ol], the IC50 (KRAS G12D) was 9.7 nM and the IC50 [1] was 540 nM.
Molecule `CN(C)CC1(COc2nc3c(c(N4CC5CCC(C4)N5)n2)CCN(c2nc(N)cc4cccc(Br)c24)C3)CC1` [Example 22, 1-(4-(3,8-diazabicyclo[3.2.1]octan-3-yl)-2-((1-((dimethylamino)methyl)cyclopropyl)methoxy)-5,8-dihydropyrido[3,4-d]pyrimidin-7 (6H)-yl) -8-bromoisoquinolin-3-amine] has an IC50 (KRAS G12D) of 13 nM and an IC50 [1] of 4090 nM.
Molecule `C#Cc1cccc2cc(O)cc(C3Cc4nc(OCC5(CN(C)C)CC5)nc(N5CC6CCC(C5)N6)c4CO3)c12` (stereo not shown) [Example 23, 4-(4-(3,8-diazabicyclo[3.2.1]octan-3-yl)-2-((1-((dimethylamino)methyl)cyclopropyl)methoxy)-7,8-dihydro-5H-pyrano[4,3-d]pyrimidin-7-yl)-5-ethynylnaphthalen-2-ol] has an IC50 (KRAS G12D) of 3 nM and an IC50 [1] of 1470 nM.
In the case of `C#Cc1cccc2cccc(C3CCc4c(nc(OCC5(CN(C)C)CC5)nc4N4CC5CCC(C4)N5)C3)c12` (stereo not shown) [Example 24, 1-(1-(((4-(3,8-diazabicyclo[3.2.1]octan-3-yl)-7-(8-ethynylnaphthalen-1-yl)-5,6,7,8-tetrahydroquinazolin-2-yl)oxy)methyl)cyclopropyl)-N,N-dimethylmethanamine], the IC50 (KRAS G12D) is reported as 17 nM and the IC50 [1] is reported as 1220 nM.
`CN1C[C@H](F)C[C@H]1COc1nc2c(c(N3CC4CCC(C3)N4)n1)CCN(c1cc(O)cc3cccc(Br)c13)C2` [Example 27, 4-(4-(3,8-diazabicyclo[3.2.1]octan-3-yl)-2-(((2S,4R)-4-fluoro-1-methylpyrrolidin-2-yl)methoxy)-5,8-dihydropyrido[3,4-d]pyrimidin-7(6H)-yl)-5-bromonaphthalen-2-ol] gave an IC50 (KRAS G12D) of 18.5 nM and an IC50 [1] of 650 nM.
Molecule `Oc1cc(N2CCc3c(nc(OCC4(CN5CCOCC5)CC4)nc3N3C[C@@H]4CC[C@H]3CN4)C2)c2c(Br)cccc2c1` [Example 28, 4-(4-((1S,4S)-2,5-diazabicyclo[2.2.2]octan-2-yl)-2-((1-(morpholinomethyl)cyclopropyl)methoxy)-5,8-dihydropyrido[3,4-d]pyrimidin-7(6H)-yl)-5-bromonaphthalen-2-ol] has an IC50 (KRAS G12D) of 3.6 nM and an IC50 [1] of 820 nM.
Work on `CN(C)CC1(COc2nc3c(c(N4CC5CCC(C4)N5)n2)CCN(c2cccc4cccc(Br)c24)C3)CC1(F)F` (stereo not shown) [Example 29, 1-(1-(((4-(3,8-diazabicyclo[3.2.1]octan-3-yl)-7-(8-bromonaphthalen-1-yl)-5,6,7,8-tetrahydropyrido[3,4-d]pyrimidin-2-yl)oxy)methyl)-2,2-difluorocyclopropyl)-N,N-dimethylmethanamine] yielded an IC50 (KRAS G12D) of 37.8 nM and an IC50 [1] of 1260 nM.
